This note sets out measurements from patent US10927107B2, “Phenyl [a]indole[2,3-g]quinolizine compounds, preparation method therefor, pharmaceutical composition, and applications thereof” (Shanghai Institute of Materia Medica, Chinese Academy of …, priority 2016, dated 2021).

For the experiment, the system named is HepG2 cells. Nature of the experiment: In vitro lipid-lowering activity: DiI-LDL uptake in HepG2 cells. Format: cell-based. Conditions: Homo sapiens, test compound 5 uM, 24 h, DiI-LDL 20 ug/ml, 3 h, FLU of sample group/FLU of blank group x100%, read-out: LDL uptake rate. As for the experimental part:
HepG2 cells were inoculated in 24-well plates, cultured in DMEM containing 10% FBS for 24 h or 48 h, and then transferred to DMEM containing 2% defatted serum and cultivated for 24 h. The old culture solution was discarded and replaced with new 2% defatted serum DMEM, and a test compound (the working concentration of which is 5 uM, triplicate for each sample) was added and incubated for 24 h. The old culture solution was abandoned and DMEM containing DiI-LDL (20 ug/ml) was added (300 ul/per 24 wells), incubated for 3 h. DMEM containing DiI-LDL was discarded, and cells were rinsed twice with PBS containing 0.4% BSA, and 3 times with PBS to remove excess DiI-LDL. Isopropanol was added (500 ul/per well of a 24-well plate), and was kept in darkness. After shaken for 20 minutes, 200 ul of supernatant was sucked to a black fluorescent plate, and fluorescence intensity (FLU) was detected at excitation light 520 nm and emission light 578 nm. The experimental results were calculated: LDL uptake rate=(FLU value of sample group to be tested/FLU value of blank group)×100%.

In the case of `COc1ccc2c(c1)c1c(n2CO)CN2CCc3cc(OC)c(OCc4ccccc4F)cc3C2C1` (stereo not drawn) [Example A9, (2-((2-fluorobenzyl)oxy)-3,12-dimethoxy-5,6,14,14a-tetrahydroindolo[3′,2′:4,5]pyridine[2,1-a]isoquinoline-9(8H)-yl)methanol], the activity at 5 µM stood at 113%.
On to `COc1cc2c(cc1OCc1ccc(F)cc1)CCN1C2Cc2c([nH]c3ccccc23)C1c1ccc(F)cc1` (stereo not drawn) [Example B60, 3-((4-fluorobenzyl)oxo)-8-(4-fluorophenyl)-2-methoxy-5,6,8,9,14,14a-hexahydroindole[3′,2′: 4,5]pyridine[2,1-a]isoquinoline], for which the activity at 5 µM is 114%.
With `COc1ccc2c(c1)c1c(n2CO)CN2CCc3cc(OC)c(OCc4ccccc4)cc3[C@H]2C1` [(R)-A1], the activity at 5 µM came to 185%.
In the case of `COc1cc2c(cc1OCc1cccc(C)c1)CCN1Cc3[nH]c4ccccc4c3CC21` (stereo not drawn) [Example C107, 2-methoxy-3-((3-methylbenzyl)oxo)-5,6,8,9,14,14a-hexahydroindolo[3′,2′:4,5]pyridine[2,1-a]isoquinoline], the activity at 5 µM came out at 69.5%.
As for `COc1ccc2c(c1)c1c(n2CO)CN2CCc3cc(OCc4cccc(C)c4)c(OC)cc3C2C1` (stereo not drawn) [Example A142, (2,12-Dimethoxy-3-((3-methylbenzyl)oxo)-5,6,14,14a-tetrahydroindolo[3′,2′:4,5]pyridine[2,1-a]isoquinoline-9(8H)-yl)methanol], the activity at 5 µM is 108%.
Next, `COc1ccc2c(c1)c1c(n2CO)CN2CCc3cc(OC)c(OCC(F)(F)F)cc3C2C1` (stereo not drawn) [Example A39, (3,12-Dimethoxy-2-(2,2,2-trifluoroethoxy)-5,6,14,14a-tetrahydroindolo[3′,2′:4,5]pyridine[2,1-a]isoquinoline-9(8H)-yl)methanol]: 147%; `COc1ccc2c(c1)c1c(n2CO)CN2CCc3cc(OC)c(OCc4ccc(C)cc4)cc3C2C1` (stereo not drawn) [Example A15, (3,12-Dimethoxy-2-((4-methylbenzyl)oxy)-5,6,14,14a-tetrahydroindolo[3′,2′:4,5]pyridine[2,1-a]isoquinoline-9(8H)-yl)methanol]: 115%; `CCOc1ccccc1OCCN[C@H](C)Cc1ccc(OC)c(S(N)(=O)=O)c1` [Positive control, Tamsulosin, reference compound]: 138%.
For `COc1cc2c(cc1OCc1ccc(F)cc1)C1Cc3c([nH]c4ccccc34)C(c3ccc(F)cc3)N1CC2` (stereo not drawn) [Example B6, 2-((4-fluorobenzyl)oxo)-8-(4-fluorophenyl)-3-methoxy-5,6,8,9,14,14a-hexahydroindole[3′,2′: 4,5]pyridine[2,1-a]isoquinoline], the activity at 5 µM was 108%.
For the compound `COc1cccc(COc2cc3c(cc2OC)CCN2Cc4c(c5cc(OC)ccc5n4CO)CC32)c1` (stereo not drawn) [Example A13, (3,12-Dimethoxy-2-((3-methoxybenzyl)oxo)-5,6,14,14a-tetrahydroindolo[3′,2′:4,5]pyridine[2,1-a]isoquinoline-9(8H)-yl)methanol], the activity at 5 µM came to 107%.
As to `COc1cc2c(cc1OCc1ccccc1F)C1Cc3c([nH]c4ccccc34)C(c3ccc(F)cc3)N1CC2` (stereo not drawn) [Example B10, 2-((2-fluorobenzyl)oxo)-8-(4-fluorophenyl)-3-methoxy-5,6,8,9,14,14a-hexahydroindole[3′,2′: 4,5]pyridine[2,1-a]isoquinoline], the activity at 5 µM stood at 108%.
In the case of `COc1ccc2c(c1)c1c(n2CO)CN2CCc3cc(OC)c(OC)cc3C2C1` (stereo not drawn) [Example A37, (2,3,12-Trimethoxy-5,6,14,14a-tetrahydroindolo[3′,2′:4,5]pyridine[2,1-a]isoquinoline-9(8H)-yl)methanol], the activity at 5 µM amounted to 99.1%.
Take `COc1cc2c(cc1OCc1ccc(F)cc1)CCN1Cc3c(c4ccccc4n3CO)CC21` (stereo not drawn) [Example A60]: the activity at 5 µM is 108%.
For `COc1ccc2[nH]c3c(c2c1)CC1c2cc(OC)c(OCc4cccc(C)c4)cc2CCN1C3` (stereo not drawn) [Example C106, 2,12-dimethoxy-3-((3-methylbenzyl)oxo)-5,6,8,9,14,14a-hexahydroindolo[3′,2′:4,5]pyridine[2,1-a]isoquinoline], the activity at 5 µM came to 111%.
Next, `COc1ccc2[nH]c3c(c2c1)C[C@H]1c2cc(OCc4ccc(C(F)(F)F)cc4)c(OC)cc2CCN1C3` [(S)-C3]: 111%.
As for `COc1ccc2c(c1)c1c(n2CO)CN2CCc3cc(OCc4ccccc4)c(OC)cc3[C@H]2C1` [(R)-A55], the activity at 5 µM came to 200%.
In the case of `COc1cc2c(cc1OCc1ccc(C)cc1)CCN1Cc3c(c4ccccc4n3CO)CC21` (stereo not drawn) [Example A70, (2-methoxy-3-((4-methylbenzyl)oxy)-5,6,14,14a-tetrahydroindolo[3′,2′:4,5]pyridine[2,1-a]isoquinoline-9(8H)-yl)methanol], the activity at 5 µM amounted to 80.6%.
The result for `COc1cc2c(cc1OCc1ccccc1F)C1Cc3c(n(CO)c4ccccc34)CN1CC2` (stereo not drawn) [Example A10, (2-((2-fluorobenzyl)oxy)-3-methoxy-5,6,14,14a-tetrahydroindolo[3′,2′:4,5]pyridine[2,1-a]isoquinoline-9(8H)-yl)methanol] reads 108%; that for `COc1ccc2c(c1)c1c(n2CO)CN2CCc3cc(OCc4ccccc4)c(OC)cc3[C@@H]2C1` [(S)-A55], 120%.
In the case of `COc1ccc2[nH]c3c(c2c1)CC1c2cc(OC)c(OCc4cccc(F)c4)cc2CCN1C3c1ccc(F)cc1` (stereo not drawn) [Example B61, 3-((3-fluorobenzyl)oxo)-8-(4-fluorophenyl)-2,12-dimethoxy-5,6,8,9,14,14a-hexahydroindole[3′,2′:4,5]pyridine[2,1-a]isoquinoline], the activity at 5 µM stood at 116%.
The result for `COc1cccc(COc2cc3c(cc2OC)CCN2C3Cc3c([nH]c4ccc(OC)cc34)C2c2ccc(F)cc2)c1` (stereo not drawn) [Example B13, 8-(4-Fluorophenyl)-3,12-dimethoxy-2-((3-methoxybenzyl)oxo)-5,6,8,9,14,14a-hexahydroindolo[3′,2′:4,5]pyridine[2,1-a]isoquinoline] reads 105%; that for `COc1ccc2[nH]c3c(c2c1)CC1c2cc(OCc4ccc(C)cc4)c(OC)cc2CCN1C3c1ccc(F)cc1` (stereo not drawn) [Example B15, 8-(4-Fluorophenyl)-3,12-dimethoxy-2-((4-methylbenzyl)oxo)-5,6,8,9,14,14a-hexahydroindolo[3′,2′:4,5]pyridine[2,1-a]isoquinoline], 111%; that for `COc1ccc2[nH]c3c(c2c1)CC1c2cc(OCc4ccccc4F)c(OC)cc2CCN1C3c1ccc(F)cc1` (stereo not drawn) [Example B9, 2-((2-fluorobenzyl)oxo)-8-(4-fluorophenyl)-3,12-dimethoxy-5,6,8,9,14,14a-hexahydroindole[3′,2′:4,5]pyridine[2,1-a]isoquinoline], 94.3%.
In the case of `COc1ccc2[nH]c3c(c2c1)C[C@H]1c2cc(OC)c(OCc4ccc(C(F)(F)F)cc4)cc2CCN1C3` [(S)-C47, (S)-2,12-Dimethoxy-3-((4-(trifluoromethyl)benzyl)oxo)-5,6,8,9,14,14a-hexahydroindolo[3′,2′:4,5]pyrido[2,1-a]isoquinoline], the activity at 5 µM was determined as 273%.
On to `COc1ccc2[nH]c3c(c2c1)C[C@@H]1c2cc(OCc4ccc(C(F)(F)F)cc4)c(OC)cc2CCN1C3` [(R)-C3], for which the activity at 5 µM worked out at 218%.
As to `COc1ccc2[nH]c3c(c2c1)CC1c2cc(OC)c(OCc4cccc(F)c4)cc2CCN1C3` (stereo not drawn) [Example C51, 3-((3-Fluorobenzyl)oxo)-2,12-dimethoxy-5,6,8,9,14,14a-hexahydroindole[3′,2′:4,5]pyridine[2,1-a]isoquinoline], the activity at 5 µM is 192%.
As for `COc1ccc2c(c1)c1c(n2CO)CN2CCc3cc(OC)c(OCc4ccccc4)cc3[C@@H]2C1` [(S)-A1], the activity at 5 µM turned out to be 116%.
As for `COc1ccc2[nH]c3c(c2c1)C[C@@H]1c2cc(OC)c(OCc4ccc(C(F)(F)F)cc4)cc2CCN1C3` [(R)-C47, (R)-2,12-Dimethoxy-3-((4-(trifluoromethyl)benzyl)oxy)-5,6,8,9,14,14a-hexahydroindolo[3′,2′:4,5]pyrido[2,1-a]isoquinoline], the activity at 5 µM is 292%.
Next, `OCn1c2c(c3ccccc31)CC1c3cc4c(cc3CCN1C2)OCO4` (stereo not drawn) [Example A109, (5,6,14,14a-tetrahydro-[1,3]dioxazo[4,5-g]indolo[3′,2′:4,5]pyridine[2,1-a]isoquinoline-9(8H)-yl)methanol]: 100%; `COc1cc2c(cc1OCc1cccc(C)c1)CCN1Cc3c(c4ccccc4n3CO)CC21` (stereo not drawn) [Example A143, (2-methoxy-3-((3-methylbenzyl)oxo)-5,6,14,14a-tetrahydroindolo[3′,2′:4,5]pyridine[2,1-a]isoquinoline-9(8H)-yl)methanol]: 91.1%; `COc1cc2c(cc1OC)C1Cc3c(n(CO)c4ccccc34)CN1CC2` (stereo not drawn) [Example A38, (2,3-dimethoxy-5,6,14,14a-tetrahydroindolo[3′,2′:4,5]pyridine[2,1-a]isoquinoline-9(8H)-yl)methanol]: 123%.
Turning to `COc1ccc2c(c1)c1c(n2CO)CN2CCc3cc(OCc4ccc(C(F)(F)F)cc4)c(OC)cc3C2C1` (stereo not drawn) [Example A57, (2,12-Dimethoxy-3-((4-(trifluoromethyl)benzyl)oxy)-5,6,14,14a-tetrahydroindolo[3′,2′:4,5]pyridine[2,1-a]isoquinoline-9(8H)-yl)methanol], the activity at 5 µM amounted to 112%.
For the compound `COc1cc2c(cc1OCc1ccc(C)cc1)CCN1Cc3[nH]c4ccccc4c3CC21` (stereo not drawn) [Example C60], the activity at 5 µM is 84.3%.
